Data published in patent publication US20250388565A1, “ESTROGEN RECEPTOR ALPHA DEGRADERS AND METHODS OF USE THEREOF” (Relay Therapeutics, Inc., priority 2022, published 2025).

target: T1, ERα protein (HiBiT-tagged) in ESR1_HiBiT KI MCF7 cells (Homo sapiens, UniProt P03372); test: Nano Glo HiBiT Lytic Degradation Assay; format: cell-based; conditions: 6 hours with compound, 14-point dose response 1:3, bell-shape curve fit, half-maximal effect of first Hill model, read-out: MCF7 ESR1 HiBiT - (DC50)
T1 sequence (P03372 1-595): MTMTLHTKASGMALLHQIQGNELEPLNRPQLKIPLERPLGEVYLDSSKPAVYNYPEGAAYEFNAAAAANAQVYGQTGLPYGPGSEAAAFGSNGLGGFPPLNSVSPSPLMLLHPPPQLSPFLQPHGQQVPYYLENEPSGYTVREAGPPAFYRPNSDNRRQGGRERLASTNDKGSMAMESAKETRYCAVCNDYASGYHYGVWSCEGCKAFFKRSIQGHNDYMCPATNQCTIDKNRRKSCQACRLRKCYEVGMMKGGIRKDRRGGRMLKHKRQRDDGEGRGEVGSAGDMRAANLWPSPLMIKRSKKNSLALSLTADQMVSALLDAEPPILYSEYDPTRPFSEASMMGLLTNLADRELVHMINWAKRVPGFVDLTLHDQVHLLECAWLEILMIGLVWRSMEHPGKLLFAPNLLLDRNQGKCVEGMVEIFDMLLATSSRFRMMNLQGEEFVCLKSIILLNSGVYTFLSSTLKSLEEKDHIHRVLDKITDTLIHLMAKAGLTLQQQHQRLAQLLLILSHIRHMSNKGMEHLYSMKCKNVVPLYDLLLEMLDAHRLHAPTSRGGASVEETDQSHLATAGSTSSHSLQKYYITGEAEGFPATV
Outline: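 HiBiT-tagged endogenous ERα remaining in MCF7 knock-in cells was quantified by lytic luminescence after a 6 h treatment. DC50 values derive from a bell-shaped curve, taken at the first Hill component's half-maximal effect.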

SMILES	DC50
O=C1CC[C@H](N2Cc3cc(N4CCN(CC5CCN(c6ccc([C@H]7c8ccc(O)cc8CC[C@H]7C7CCOCC7)cc6)CC5)CC4)ccc3C2=O)C(=O)N1 [Compound I-33, (3S)-3-[5-[4-[[1-[4-[(1S,2S)-6-hydroxy-2-tetrahydropyran-4-yl-tetralin-1-yl]phenyl]-4-piperidyl]methyl]piperazin-1-yl]-1-oxo-isoindolin-2-yl]piperidine-2,6-dione]	173 nM
O=C1CC[C@H](N2Cc3cc(N4CCN(CC5CCN(c6ccc(C7=C(c8ccccc8)CCc8cc(C(=O)O)ccc87)cc6)CC5)CC4)ccc3C2=O)C(=O)N1 [Compound I-7, (S)-5-(4-(4-((4-(2-(2,6-dioxopiperidin-3-yl)-1-oxoisoindolin-S-yl)piperazin-1-yl)methyl)piperidin-1-yl)phenyl)-6-phenyl-7,8-dihydronaphthalene-2-carboxylic acid]	≥ 10000 nM
[2H]c1cc2c(c([2H])c1O)C([2H])C[C@H](c1ccccc1)[C@@H]2c1ccc(N2CCC(CN3CCN(c4ccc5c(c4)CN([C@H]4CCC(=O)NC4=O)C5=O)CC3)CC2)cn1 (stereo partly drawn) [Compound I-339]	0.31 nM
O=C1CC[C@H](N2Cc3cc(N4CCN(CC5CCN(c6ccc([C@H]7c8ccc(O)cc8C(F)(F)C[C@H]7c7ccc(F)cc7F)cc6)CC5)CC4)ccc3C2=O)C(=O)N1 [Compound I-319, (S)-3-(5-(4-((1-(4-((1S,2R)-2-(2,4-difluorophenyl)-4,4-difluoro-6-hydroxy-1,2,3,4-tetrahydronaphthalen-1-yl)phenyl)piperidin-4-yl)methyl)piperazin-1-yl)-1-oxoisoindolin-2-yl)piperidine-2,6-dione]	108 nM
O=C1CC[C@H](N2Cc3cc(N4CCN(CC5CCN(c6ccc([C@H]7c8ccc(O)cc8CO[C@H]7c7ccc(C(F)(F)F)cc7)cc6)CC5)CC4)ccc3C2=O)C(=O)N1 (single isomer, unassigned) [Compound I-56]	7.75 nM
O=C1CCN(c2ccc(N3CCC4(CCN(CC5CCN(c6ccc([C@@H]7c8ccc(O)cc8C(F)(F)C[C@@H]7c7ccccc7)cc6)CC5)C4)CC3)cc2)C(=O)N1 [Compound I-292, 1-(4-(2-((1-(4-((1R,2S)-4,4-difluoro-6-hydroxy-2-phenyl-1,2,3,4-tetrahydronaphthalen-1-yl)phenyl)piperidin-4-yl)methyl)-2,8-diazaspiro[4.5]decan-8-yl)phenyl)dihydropyrimidine-2,4 (1H,3H)-dione]	0.73 nM
O=C1CCN(c2ccc(N3CCC4(CCN(CC5CCN(c6ccc([C@@H]7c8ccc(O)cc8C(F)(F)C[C@@H]7c7ccccc7)cc6)CC5)C4)C3)cc2)C(=O)N1 (single isomer, unassigned) [Compound I-289]	≥ 10000 nM
Cn1nc(N2CCC(=O)NC2=O)c2ccc(N3CCN(CC4CCN(c5ccc([C@@H]6c7ccc(O)cc7CC[C@@H]6c6ccccc6)cc5)CC4)CC3)cc21 [Compound I-299, 1-(6-(4-((1-(4-((1R,2S)-6-hydroxy-2-phenyl-1,2,3,4-tetrahydronaphthalen-1-yl)phenyl)piperidin-4-yl)methyl)piperazin-1-yl)-1-methyl-1H-indazol-3-yl)dihydropyrimidine-2,4 (1H,3H)-dione]	1 nM

The next lines start with the values.

DC50	SMILES
≥ 10000 nM	O=C1CC[C@H](N2Cc3cc(N4CCN(CC5CCN(c6ccc([C@@H]7c8ccc(Br)cc8CC[C@@H]7c7ccccc7)cc6)CC5)CC4)ccc3C2=O)C(=O)N1 [II-62]
22 nM	O=C1CCC(N2Cc3cc(C4=CCN(CC5CCN(c6ccc([C@@H]7c8ccc(O)cc8CC[C@@H]7c7ccccc7)cc6)CC5)CC4)ccc3C2=O)C(=O)N1 (stereo partly drawn) [II-104]
0.73 nM	Cc1cc(F)c([C@H]2CCc3cc(O)ccc3[C@H]2c2ccc(N3CCC(CN4CCN(c5ccc6c(c5)CN([C@H]5CCC(=O)NC5=O)C6=O)CC4)CC3)cc2)cc1F [II-75]
2 nM	O=C1CC[C@H](N2Cc3cc(N4CCN(CC5CCN(c6ccc([C@H]7c8ccc(O)cc8CC[C@H]7c7ccc(C(F)(F)F)cc7)cc6)CC5)CC4)ccc3C2=O)C(=O)N1 (single isomer, unassigned) [II-41]
